Reference: patent US20220347305A1, “CONTROLLED RELEASE DRUG DIMERS” (Ripple Therapeutics Corporation, priority 2019, published 2022)

Experiments:
[1] = Pellet formation by heat molding (heat processing of compounds); assay type: physicochemical; details: processed ~10-30° C. above Tg or Tm, pressed into cylindrical mold ~1 mm x 1 mm, light microscopy
Method: Crystalline powder was melted at 185° C. and pellets were formed from 1 mm×1 mm cylindrical molds. The starting powder and heat-processed pellets were tested by differential scanning calorimetry (DSC; FIG. 1C) and X-ray powder diffraction (XRPD; FIG. 1D) to confirm heat-processing converted Compound 1 from the crystalline state to the glassy state.
Compounds that were collected as stable powders and/or gums were investigated for pellet formation by heat molding. Compounds were processed at a temperature ˜10-30° C. above their corresponding thermal transitions (glass transition temperature (Tg) for gums or amorphous powders or melting point (Tm) for crystalline powders) and pressed into a cylindrical mold of ˜1 mm in height×1 mm in diameter. Light microscopy was used to capture images of the heat-formed pellets. Temperatures used to achieve a melt for heat molding were in a range from 70° C. to 220° C.

[2] = Drug release from heat-molded pellets in phosphate buffered saline; assay type: physicochemical; details: 37° C.; for Observation of pellet after 1-day incubation in release buffer: 4 mL PBS, shaker 115 rpm
Method: Drug release from heat-molded pellets of the compounds were assessed in phosphate buffered saline (PBS). Heat-molded pellets were placed in 20 ml glass vials and 2 ml of release buffer was added. Samples were incubated at 37° C. with constant agitation at 115 rpm. Release buffer was sampled and fully replaced with 2 ml of fresh buffer on days 1, 3, 7, 10, and 14. Samples were analyzed by high performance liquid chromatography (HPLC) to quantify drug products. Cumulative release was calculated as a percentage of total mass of starting pellets and was plotted over time.
Heat molded pellets of Compound 3, Compound 5, and Compound 8 were then placed in 20 mL glass vials and 4 mL of release buffer (phosphate buffered saline, PBS) was added. Samples were incubated at 37° C. on a shaker rotating at 115 rpm. […] Drug release from Compound 8 was assessed by HPLC from PBS release buffer weekly for 8 weeks with full buffer change at each time point.

[3] = Drug release and erosion of Compound 1 heat-molded pellets in release buffer (PBS, 1% FBS in PBS, 100% FBS); assay type: physicochemical; details: 37° C., 115 rpm
Method: Heat-molded pellets from Compound 1 (˜1 mm×1 mm) were then placed in 20 mL glass vials and 2 mL of release buffer (either 100% phosphate buffered saline (PBS), 1% fetal bovine serum (FBS) in PBS, or 100% FBS) was added. Samples were incubated at 37° C. on a shaker rotating at 115 rpm. After 1 day, 3 days, 7 days, and subsequently in alternating 3 and 4 day intervals (i.e., 1, 3, 7, 10, 14 days etc.), release buffer was sampled directly (PBS) or syringe filtered, proteins were precipitated with acetonitrile, and drug release products were extracted. The samples were analyzed by high performance liquid chromatography (HPLC) to quantify drug products. Cumulative drug release was calculated and plotted as a percentage of the total drug in each pellet released over time (FIG. 1E).

SMILES | Pellet formation by heat molding and handling properties of the pellet [1] | melting point [°C] | also measured
O=C(OCCCCCCCOC(=O)N1CCCN(S(=O)(=O)c2cccc3cnccc23)CC1)N1CCCN(S(=O)(=O)c2cccc3cnccc23)CC1 [Compound 3, heptane-1,7-diyl bis(4-(isoquinolin-5-ylsulfonyl)-1,4-diazepane-1-carboxylate)] | successfully formed glassy, mostly transparent pellets |  | Observation of pellet after 1-day incubation in release buffer [2]: pellet shape changed to a clear gel
O=C(Oc1ccc2c3c1O[C@H]1C(=O)CC[C@@]4(O)[C@@H](C2)N(CC2CC2)CC[C@]314)c1ccc(C(=O)Oc2ccc3c4c2O[C@H]2C(=O)CC[C@@]5(O)[C@@H](C3)N(CC3CC3)CC[C@]425)cc1 [Compound 16, bis((4R,4aS,7aR,12bS)-3-(cyclopropylmethyl)-4a-hydroxy-7-oxo-2,3,4,4a,5,6,7,7a-octahydro-1H-4,12-methanobenzofuro[3,2-e]isoquinolin-9-yl) terephthalate] |  |  | Pellet formation by heat molding and handling properties of the pellet ([1]; listed as Naltrexone-1,4-terephthalate-Naltrexone): did not form a heat processed pellet
O=C(CCCCC(=O)Oc1ccc2c3c1O[C@H]1C(=O)CC[C@@]4(O)[C@@H](C2)N(CC2CC2)CC[C@]314)Oc1ccc2c3c1O[C@H]1C(=O)CC[C@@]4(O)[C@@H](C2)N(CC2CC2)CC[C@]314 [Compound 10, bis((4R,4aS,7aR,12bS)-3-(cyclopropylmethyl)-4a-hydroxy-7-oxo-2,3,4,4a,5,6,7,7a-octahydro-1H-4,12-methanobenzofuro[3,2-e]isoquinolin-9-yl) adipate] | didn't form a viscous liquid that could be pressed into a pellet |  | 
COc1ccc2c(c1)c(CC(=O)OCCOCCOCCOC(=O)Cc1c(C)n(C(=O)c3ccc(Cl)cc3)c3ccc(OC)cc13)c(C)n2C(=O)c1ccc(Cl)cc1 [Compound 8, (ethane-1,2-diylbis(oxy))bis(ethane-2,1-diyl) bis(2-(1-(4-chlorobenzoyl)-5-methoxy-2-methyl-1H-indol-3-yl)acetate)] | formed opaque yellow-tinted pellets that could be handled | 102 | Drug release from pellet assessed by HPLC ([2]; PBS release buffer, weekly for 8 weeks with full buffer change): Minimal drug release
C=CCN1CC[C@]23c4c5ccc(OC(=O)CCCCC(=O)Oc6ccc7c8c6O[C@H]6C(=O)CC[C@@]9(O)[C@@H](C7)N(CC=C)CC[C@]869)c4O[C@H]2C(=O)CC[C@@]3(O)[C@H]1C5 [Compound 9, bis((4R,4aS,7aR,12bS)-3-allyl-4a-hydroxy-7-oxo-2,3,4,4a,5,6,7,7a-octahydro-1H-4,12-methanobenzofuro[3,2-e]isoquinolin-9-yl) adipate] |  | 120 | 
N[C@@H](Cc1ccc(O)c(O)c1)C(=O)OCC1CCC(COC(=O)[C@@H](N)Cc2ccc(O)c(O)c2)CC1 (stereo partly drawn) [Compound 6, cyclohexane-1,4-diylbis(methylene) (2S,2′S)-bis(2-amino-3-(3,4-dihydroxyphenyl)propanoate)] |  | 161 to 166 | 
O=C(CCCCCCCCC(=O)N1CCCN(S(=O)(=O)c2cccc3cnccc23)CC1)N1CCCN(S(=O)(=O)c2cccc3cnccc23)CC1 [Compound 5, 1,10-bis(4-(isoquinolin-5-ylsulfonyl)-1,4-diazepan-1-yl)decane-1,10-dione] | successfully formed glassy, mostly transparent pellets |  | Observation of pellet after 1-day incubation in release buffer [2]: fragmented entirely to opaque particulates
C[C@@H]1C[C@H]2[C@@H]3CCC4=CC(=O)C=C[C@]4(C)[C@@]3(F)[C@@H](O)C[C@]2(C)[C@@]1(O)C(=O)COC(=O)OCCOCCOCCOC(=O)OCC(=O)[C@@]1(O)[C@H](C)C[C@H]2[C@@H]3CCC4=CC(=O)C=C[C@]4(C)[C@@]3(F)[C@@H](O)C[C@@]21C [Compound 1, Dexamethasone-Triethylene Glycol-Dexamethasone] | formed into pellets in the glassy state |  | Erosion of pellets over time (representative images) [3]: surface erosion over time
